Results as given in patent US6410575B1, “Viral treatment” (The Procter & Gamble Company, priority 1999, dated 2002).
Values after ≈ are worked out from the molar mass of the structure shown.

Legend:
[1] = test system: Cryptococcus neoformans; assay: Anti-fungal activity, MFC (NCCLS M-27A based); type: cell-based
Method: It was active against Cryptococcus neoformans and Curvularia lunata. The cidal activity for the C. neoformans is high enough that it is clear […] against this yeast. This test was conducted using a method based upon NCCLS reference method M-27A published in 1997. Solvent, medium and growth controls were set-up with the tests. Once these were read to validate the test performance, the QC fungi were read to insure they had expected results. These steps validated the test system. DMSO was used as a drug-chemical solvent. […] The 90% cut-off is necessary for azoles, which are static and not cidal. The […] or cidal level, was determined by sub-culturing a sample from each tube showing no growth.

[2] = test system: HSV-2MS; assay: Herpes simplex testing in vero cells; type: cell-based, herpes simplex virus -2; conditions: HSV-2MS in vero cells
[3] = test system: U937KN1272, a protease resistant strain; assay: Long term in vitro study, U937KN1272; type: cell-based, HIV
Method: (§1) Toxicity quantification involves the XTT-based evaluation. Assays were designed to characterize the long term effects of the compounds on virus production and to characterize the longer term effects of the compounds on virus production from chronically HIV infected cells.
(§2) CEM-SS cells chronically infected with HIV isolate, for example SKI (CEM-SKI) are cultured in RPMI1640 tissue culture medium supplemented with 10% fetal bovine serum and antibiotics. […] CEM-SKI or other infected cells with no added drug are used as the control cells.
(§3) Cells are allowed to grow to a density of approximately 1×10^6 cells/ml and are then passaged at a 1:10 dilution. […] The drug concentration in the flask is then increased two-fold and the cells maintained as above.
(§4) The cell populations contain integrated copies of the HIV genome and constitutively produce HIV at relatively high levels or are latently infected and only produce virus after stimulation with phorbol esters, tumor necrosis factor or IL6(U1 and ACH2). Reductions in virus products were observed when quantifying supernatant reverse transcriptase activity.
Similar results are obtained with U937KN1272, a protease resistant strain, reported below.

[4] = test system: HIV-1 cell line, U937IIIB; assay: Long term in vitro study, U937IIIB; type: cell-based
Method: as §1, §2, §3, §4
The results with U937IIIB cells were reported at weekly intervals.
The U937IIIB cell line is viral strain of the U937 cell line.

[5] = molecular target: T1, HIV-1 protease (Human immunodeficiency virus type 1 group M subtype B, UniProt P04585); assay: Protease inhibition assay (fluorometric); type: biochemical
T1 construct: use of the fluorometric, HIV-1 protease assay; purchased Bachem
Method: Protease inhibition is evaluated using a fluorometric method. Enzyme (Bachem) is diluted to 116 μgm/ml in 50 mM NaOAC, 5 mM DTT, 2 mM EDTA, 10% glycerol (pH 5.0) and stored as 10 μl samples at −20° C. HIV protease substrates 1 (Molecular Probes) are diluted to a working concentration of 0.32 nmoles/μl. Enzyme (20 μl) and drug (20 μl) are added to each well of a microtiter plate as appropriate. Positive and negative controls are evaluated in parallel. Fluorescene is quantitated on Labsystems Fluroskan II using 355 nm/460 nm at 37° C. at time zero and at 30 minute intervals for 2 hours. In instances where auto-fluorescence precludes use of the fluorometric, HIV-1 protease assay or confirmation of a result is required, an HPLC based protease assay can be employed.
The mechanism of action of the (5-aryl-1,2,4-thiadiazol)-3-yl thiourea derivatives or (5-aryl-1,2,4-thiadizol)-3-yl urea derivatives is not known.

[6] = test system: BVDV; assay: BVDV testing in vitro; type: cell-based, bovine diarrhea virus
From the text: DMSO had no effect, as expected.
BVDV is a bovine diarrhea virus and is a well known surrogate virus for hepatitis C which cannot be cultured in vitro.

[7] = test system: TPA-induced BCBL-1 cells; assay: Toxicity values in the HHV8 test; type: cell-based
Method: as §1
(§5) The DNA copy number and the toxicity value were measured and compared with Cidofovir. Kaposi's sarcoma (KS) is a cancer that is often found in people with weak immune systems, such as those taking immunosuppressants or those with AIDS. The exact nature of the disease is uncertain, but it is almost always found in association with HHV8.

[8] = Toxicity values in the HHV8 test; type: cell-based; conditions: human, TPA-induced BCBL-1 cells; read-out: TC50 (the source's name)
Method: as §1, §5

NC(=S)Nc1nsc(-c2ccccc2)n1
anti-fungal activity in vitro [1]: active
MFC ([1]; cidal level, read-out: MFC): 32 µg/mL (≈ 135 µM)
TI or therapeutic index [2]: > 1.3
virus production (supernatant reverse transcriptase activity) ([3]; U937KN1272, 7 μg/ml, day 4): 119839
virus production (supernatant reverse transcriptase activity) ([3]; U937KN1272, 7 μg/ml, day 11): 78089
virus production (supernatant reverse transcriptase activity) ([3]; U937KN1272, 7 μg/ml, day 18): 74773
virus production (supernatant reverse transcriptase activity) ([3]; U937KN1272, 7 μg/ml, day 25): 78997
virus production (supernatant reverse transcriptase activity) ([3]; U937KN1272, 7 μg/ml, day 32): 31156
virus production (supernatant reverse transcriptase activity) ([3]; U937KN1272, 7 μg/ml, day 39): 41326
virus production (supernatant reverse transcriptase activity) ([3]; U937KN1272, 7 μg/ml, day 46): 31024
virus production (supernatant reverse transcriptase activity) ([3]; U937KN1272, 7 μg/ml, day 53): 31209
virus production (supernatant reverse transcriptase activity) ([3]; U937KN1272, 15 μg/ml, day 4): 103341
virus production (supernatant reverse transcriptase activity) ([3]; U937KN1272, 15 μg/ml, day 11): 80161
virus production (supernatant reverse transcriptase activity) ([3]; U937KN1272, 15 μg/ml, day 18): 73939
virus production (supernatant reverse transcriptase activity) ([3]; U937KN1272, 15 μg/ml, day 25): 74262
virus production (supernatant reverse transcriptase activity) ([3]; U937KN1272, 15 μg/ml, day 32): 26305
virus production (supernatant reverse transcriptase activity) ([3]; U937KN1272, 15 μg/ml, day 39): 28635
virus production (supernatant reverse transcriptase activity) ([3]; U937KN1272, 15 μg/ml, day 46): 18073
virus production (supernatant reverse transcriptase activity) ([3]; U937KN1272, 15 μg/ml, day 53): 22110
virus production (supernatant reverse transcriptase activity) ([3]; U937KN1272, 30 μg/ml, day 4): 114070
virus production (supernatant reverse transcriptase activity) ([3]; U937KN1272, 30 μg/ml, day 11): 89087
virus production (supernatant reverse transcriptase activity) ([3]; U937KN1272, 30 μg/ml, day 18): 72398
virus production (supernatant reverse transcriptase activity) ([3]; U937KN1272, 30 μg/ml, day 25): 38006
virus production (supernatant reverse transcriptase activity) ([3]; U937KN1272, 30 μg/ml, day 32): 6908
virus production (supernatant reverse transcriptase activity) ([3]; U937KN1272, 30 μg/ml, day 39): 14779
virus production (supernatant reverse transcriptase activity) ([3]; U937KN1272, 30 μg/ml, day 46): 5663
virus production (supernatant reverse transcriptase activity) ([3]; U937KN1272, 30 μg/ml, day 53): 10534
virus production (supernatant reverse transcriptase activity) ([4]; 7 μg/ml, day 4): 9368
virus production (supernatant reverse transcriptase activity) ([4]; 7 μg/ml, day 11): 8889
virus production (supernatant reverse transcriptase activity) ([4]; 7 μg/ml, day 18): 7566
virus production (supernatant reverse transcriptase activity) ([4]; 7 μg/ml, day 25): 5781
virus production (supernatant reverse transcriptase activity) ([4]; 7 μg/ml, day 32): 3414
virus production (supernatant reverse transcriptase activity) ([4]; 7 μg/ml, day 39): 5346
virus production (supernatant reverse transcriptase activity) ([4]; 7 μg/ml, day 46): 4085
virus production (supernatant reverse transcriptase activity) ([4]; 7 μg/ml, day 53): 4832
virus production (supernatant reverse transcriptase activity) ([4]; 15 μg/ml, day 4): 9710
virus production (supernatant reverse transcriptase activity) ([4]; 15 μg/ml, day 11): 8025
virus production (supernatant reverse transcriptase activity) ([4]; 15 μg/ml, day 18): 5435
virus production (supernatant reverse transcriptase activity) ([4]; 15 μg/ml, day 25): 6064
virus production (supernatant reverse transcriptase activity) ([4]; 15 μg/ml, day 32): 2479
virus production (supernatant reverse transcriptase activity) ([4]; 15 μg/ml, day 39): 4377
virus production (supernatant reverse transcriptase activity) ([4]; 15 μg/ml, day 46): 3867
virus production (supernatant reverse transcriptase activity) ([4]; 15 μg/ml, day 53): 3510
virus production (supernatant reverse transcriptase activity) ([4]; 30 μg/ml, day 4): 9549
virus production (supernatant reverse transcriptase activity) ([4]; 30 μg/ml, day 11): 7639
virus production (supernatant reverse transcriptase activity) ([4]; 30 μg/ml, day 18): 3551
virus production (supernatant reverse transcriptase activity) ([4]; 30 μg/ml, day 25): 4611
virus production (supernatant reverse transcriptase activity) ([4]; 30 μg/ml, day 32): 1855
virus production (supernatant reverse transcriptase activity) ([4]; 30 μg/ml, day 39): 2410
virus production (supernatant reverse transcriptase activity) ([4]; 30 μg/ml, day 46): 1550
virus production (supernatant reverse transcriptase activity) ([4]; 30 μg/ml, day 53): 1819
EC50 [5]: > 423 µM
activity as a protease inhibitor [5]: did not show activity
remaining activity at 0.001 µM ([5]; 1 nM, read-out: Protease inhibition, % no drug control): 100%
remaining activity at 0.01 µM ([5]; 10 nM, read-out: Protease inhibition, % no drug control): 103%
remaining activity at 0.1 µM ([5]; 100 nM, read-out: Protease inhibition, % no drug control): 99.9%
remaining activity at 1 µM ([5]; read-out: Protease inhibition, % no drug control): 88%
Antiviral Index (AI), TC50/IC50 ([6]; first test): greater than 4000
Antiviral Index (AI), TC50/IC50 ([6]; second screening test): 1000.4
% cell control ([7]; 0.64 μM): 114.3%
% cell control ([7]; 2 μM): 114.9%
% cell control ([7]; 6.4 μM): 104.6%
% cell control ([7]; 20 μM): 114.8%
% cell control ([7]; 64 μM): 59.7%
% cell control ([7]; 200 μM): 23.4%
CC50 [8]: 100 µM
